Where only a bound is given, the exact number is not on record here.

The values that follow come from patent US20230097992A1, “BIVALENT EGF FUSION TOXINS” (The Regents of the University of Colorado, a body corporate, priority 2020, published 2023).

The subject of experiment [1] is human EGFR-positive HNSCC cell line UMSCC22B. Kind of experiment: CellTiter-Glo Luminescent Cell Viability Assay, UMSCC22B. In kind it is cell-based. Conditions: read-out: IC50 to HNSCC cell lines (Erlotinib). How it is done:
(§1) FIG. 9 presents the data from in vitro efficacy analysis of the human EGF fusion toxins against human EGFR-positive HNSCC cell lines using CellTiter-Glo® Luminescent Cell Viability Assay (Promega) Y-axis: inhibition rate of the cell viability by determining the number of viable cells based on the quantification of the ATP present. X-axis: plated fusion toxin concentration. Cycloheximide (1.25 mg/mL) was used as a positive control. The negative control contained cells without fusion toxin. Data were from three individual experiments for each HNSCC cell line. Error bars indicate SD.
(§2) Y-axis: inhibition rate of the cell viability by determining the number of viable cells based on the quantification of the ATP present. […] Cycloheximide (1.25 mg/mL) was used as a positive control. […]
(§3) In vitro efficacy analysis of the human EGF fusion toxins (mEGF-IT and bEGF-IT) to the human HNSCC tumor cell lines was performed using CellTiter-Glo® Luminescent Cell Viability Assay (Promega Corporation, Madison, Wis.) as described previously (Zheng et al. (2017), Mol. Oncol. 11, 584-594, which is hereby incorporated by reference in its entirety). This cell viability assay measures the luminescence produced because of ATP production from metabolically active cells. […] The luminescence signals were recorded using BioTek Synergy LX Multi-Mode Reader.
(§4) IC50 was determined using nonlinear regression (curve fit) of Prism. […]
For orientation: Cellular ATP, detected with luciferase, serves as a proxy for viable cell number.

Experiment [2] deals with human EGFR-positive HNSCC cell line TU167. Kind of experiment: CellTiter-Glo Luminescent Cell Viability Assay, TU167. In kind it is cell-based. Particulars: read-out: IC50 to HNSCC cell lines (Erlotinib). The protocol: as §1, §2, §3, §4
Experiment [3] concerns human EGFR-positive HNSCC cell line UMSCC1. Kind of experiment: CellTiter-Glo Luminescent Cell Viability Assay, UMSCC1. In kind it is cell-based. Conditions: UMSCC1, read-out: IC50 to HNSCC cell lines (Erlotinib). How it is done:
as §1, §2, §3, §4

Experiment [4] relates to HNSCC Cal27 subcutaneous xenografts. Kind of experiment: Flank-xenograft solid tumor-bearing NSG mouse model. In kind it is in vivo, NSG mice. Conditions: for Median survival time: Subcutaneous xenograft model, fusion toxin or DT390 50 μg/kg IP, erlotinib 20 mg/kg gavage, once daily for 10 days from day 4. From the text: FIGS. 6A-6D presents the data from in vivo efficacy analysis of the human EGF fusion toxins against subcutaneous xenografts in NSG mice from two animal studies. FIG. 6A depicts the survival curve for NSG mice injected with Cal27 cells. […] FIGS. 6B-D depict tumor volume and weight data from the second study performed with a second cohort of NSG mice. […] Mice were euthanized on day 14 after tumor cell injection, when the first mouse in the DT390 group reached the end point. FIG. 6B: Tumor volumes were measured periodically, and the growth kinetics of the four groups were plotted. FIG. 6B depicts the tumor growth kinetics for a period of 14 days. FIG. 6C presents a bar graph representing the tumor weights at day 14. FIG. 6D depicts images of harvested tumors on day 14. Scale bar: 1 cm. FIGS. 6A-6C: *P<0.05; **P<0.01; ***P<0.001; ****P<0.0001; ns: not significant. The P-values for the survival curves in FIG. 6A were calculated using the Mantel-Cox log-rank test and that for the comparisons in FIGS. 6B and C were calculated using the two-tailed Student t-test (GraphPad Prism 9.0.0).
HNSCC tumor cells were injected via the following routes: 1) Flank-xenograft solid tumor model: eight million human HNSCC Cal27 tumor cells were subcutaneously injected into the right flank at day 0. The tumor-bearing mice were randomly divided into the four experimental groups when the tumors were palpable at day 3. The tumor volume was measured using digital vernier calipers every 3 days and calculated according to the formula: volume (mm^3)=(length×width×width)/2. 2) Tongue-orthotopic solid tumor model: eight million human HNSCC Cal27 tumor cells in 50 μl DMEM were injected into the tongue at day 0 following isoflurane anesthesia and the tumor-bearing mice were randomly divided into the planned four experimental groups at day 3. 3) Experimental metastasis model: one million human HNSCC Cal27 tumor cells in 200 μl DMEM were intravenously injected at day 0 via tail vein and the tumor-bearing mice were randomly divided into the four experimental groups at day 3.
Mono-EGF-IT (mEGF-IT), bEGF-IT, or DT390 was intraperitoneally injected (IP) starting at day 4 at 50 μg/kg, once daily for 10 consecutive days. […] The injected animals were observed daily for signs and symptoms of illness and scored at least twice weekly based on the parameters as previously reported (Peraino et al. (2013), J. Immunol. Methods 398-399, 33-43, which is hereby incorporated by reference in its entirety; Wang et al., 2015). The animals were humanely euthanized when the score exceeded the limit or the animal lost more than 15% of its pre-injection body weight. In addition, to assess whether the fusion toxins are toxic to the animals, NSG mice injected with the fusion toxins only were also included as control.
In vivo efficacy of the mEGF-IT and bEGF-IT against HNSCC was assessed using three immunodeficient tumor-bearing NSG mouse models. The first in vivo efficacy model was a flank-xenograft solid tumor-bearing NSG mouse model. Eight million Cal27 tumor cells were injected subcutaneously (SQ) into the right flank at day 0. The EGF fusion toxins were injected intraperitoneally (IP) starting on day 4 at 50 μg/kg daily for 10 consecutive days. […] The reduction of the tumor volumes, weights and sizes (FIGS. 6B-6D) were all consistent with the median survival prolongation.

In experiment [5] the test system is residual Cal27 tumor cells. Kind of experiment: CellTiter-Glo Luminescent Cell Viability Assay, residual Cal27 tumor cells. The format is cell-based, human. Conditions: residual Cal27 cells from flank xenografts at day 14 after bEGF-IT 50 μg/kg once daily for 10 days. The text has this: FIGS. 13A-C present in vitro binding affinity and efficacy analysis of the bEGF-IT to the residual Cal27 tumor cells. FIG. 13A: Flow cytometry binding affinity analysis of the bEGF-IT to the residual Cal27 tumor cells. The data were representative of three individual experiments. FIG. 13B: KD determination of the bEGF-IT to the residual Cal27 tumor cells using flow cytometry and nonlinear least squares fit. FIG. 13C: In vitro efficacy analysis of the bEGF-IT to the residual Cal27 tumor cells using CellTiter-Glo® Luminescent Cell Viability Assay. bEGF-IT group (green line); Anti-murine PD-1 immunotoxin group as negative control (blue line). Data were from three individual experiments. Error bars indicate SD.
The tumor was removed from the sacrificed flank-xenograft solid tumor-bearing mice and washed with PBS twice in sterile manner. Then the tumor sample was cut into small pieces (approximately 1 mm^3) on the lid of a petri dish and washed with PBS. The tissue pellet was resuspended in DMEM tissue culture medium and cultured in the T25 flask. After several days of culture, the tissue residues were removed and the residual tumor cells were cultured as parent Cal27 tumor cell line.
It was hypothesized that the residual tumor cells were still sensitive to the human EGF fusion toxin treatment. […]

As a reminder, the IC50 is the concentration at which inhibition is half-maximal. `C#Cc1cccc(Nc2ncnc3cc(OCCOC)c(OCCOC)cc23)c1` [Erlotinib]: the figures for the IC50 in experiment [1], in experiment [2] and in experiment [3] were 1740 nM, 410 nM and 2460 nM, respectively. Also, the Median survival time in experiment [4] is recorded as more than 60 days.

Take “Bi-EGF IT: DT390 joined by G4S to two human EGF domains linked by (G4S)3, C-terminal 6×His tag; SEQ ID NO: 10”: it took 0.0562 nM to reach half-maximal inhibition in experiment [5] (IC50). In addition, the values for the Median survival time in experiment [4] and in experiment [4] (listed as bEGF-IT) were more than 60 days and 61 days, respectively. For the same compound, the “decrease of tumor sizes and weights” value in experiment [4] (flank xenograft, second cohort, day 14) was “about 80%”.
